Results: US11422106B2, “Using 4-acetoxyphenol as a substrate for modular hydrolase biosensors” (United States Government, as represented by the …, priority 2019, dated 2022)
Where “and” joins values, the source holds several entries; their conditions need not be identical. Equal entries are not always repeated.

Experiments:
[1] = target: T1, Acetylcholinesterase (AchE) (Electrophorus electricus, UniProt O42275); format: biochemical, Electrophorus electricus (electric eel)
T1 construct: purchased Sigma-Aldrich Type VI-S (catalogue number not given)
T1 sequence (O42275 24-633): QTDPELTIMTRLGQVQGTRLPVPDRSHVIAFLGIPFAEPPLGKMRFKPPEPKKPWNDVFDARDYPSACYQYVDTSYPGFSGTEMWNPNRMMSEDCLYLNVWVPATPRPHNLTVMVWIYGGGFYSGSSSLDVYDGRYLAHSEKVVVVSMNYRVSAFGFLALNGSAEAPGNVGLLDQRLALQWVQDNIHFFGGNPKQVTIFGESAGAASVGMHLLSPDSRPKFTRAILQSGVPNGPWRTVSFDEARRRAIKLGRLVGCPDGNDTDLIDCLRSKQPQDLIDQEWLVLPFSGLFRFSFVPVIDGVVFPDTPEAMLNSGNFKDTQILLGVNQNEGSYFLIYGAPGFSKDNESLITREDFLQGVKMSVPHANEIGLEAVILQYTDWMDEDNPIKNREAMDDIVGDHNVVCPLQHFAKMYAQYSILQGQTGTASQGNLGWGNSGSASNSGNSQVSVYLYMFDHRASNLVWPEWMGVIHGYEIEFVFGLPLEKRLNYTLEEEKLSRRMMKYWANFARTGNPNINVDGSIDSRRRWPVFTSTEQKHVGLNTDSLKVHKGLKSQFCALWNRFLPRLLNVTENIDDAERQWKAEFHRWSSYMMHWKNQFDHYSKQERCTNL

[2] = target: T1, Acetylcholinesterase (AchE); experiment: Speciation of As(III)/As(V) mixtures with the AchE sensor versus ICP-AES; format: biochemical, Electrophorus electricus (electric eel); settings: 5 μM As(V) mixed with 0-20 μM As(III), 0.1 M Tris-HCl pH 8.0
[3] = target: T1, Acetylcholinesterase (AchE); experiment: Amperometric activity assay of immobilized AchE electrode with 4-acetoxyphenol (steady state current at 0.35 V); format: biochemical, Electrophorus electricus (electric eel); settings: substrate 4-acetoxyphenol
Description: Acetylcholinesterase (E.C. 3.1.1.7) Type VI-S from Electrophorus electricus (electric eel) with activity of 217 U mg^−1 protein, was purchased from Sigma-Aldrich. 4-Acetoxyphenol was purchased from Combi-Blocks (San Diego, Calif., USA). All other chemicals were purchased from Sigma-Aldrich (reagent grade) and used as received.
A mixture of BSA and AchE (containing 0.50 μg, or 0.11 U of the AchE, 8 μg of BSA in 10 μl of 0.06 M phosphate, pH 7.0) was spread on the working electrode of carbon SPE (RRPE1002C). The proteins were deposited on the electrode surface by air drying, and then crosslinked by adding 10 μl of 0.0021% of glutaraldehyde solution in water. The electrode was air dried at room temperature for 16 h to complete the crosslinking. To hydrate the sensor, it was stored in 0.1 M Tris-HCl, pH 7.0 for >24 h at room temperature before use.
Electrochemical evaluations were carried out in the low volume SPE cell (Pine Research Instrumentation, Durham, N.C., USA), and the conditions controlled by a DY2013 Potentiostat with DY2000 software (Digi-Ivy, Inc. Austin, Tex., USA). The working potential was set with the Ag/AgCl electrode on the SPE as the reference. […]
All evaluations were carried out at 22±2° C. The current in amperometric determination was recorded for 150 s. […] The average of the readings between 120 s and 150 s was used as the steady-state current. […]

[4] = Hydrolase activity of commercial enzymes with 4-acetoxyphenol as substrate; format: biochemical
Text: Instead of, or in addition to, AchE, the preferred biosensors of the present subject matter can utilize a wide range of enzyme(s). Table 1 set forth below lists a representative list of enzymes suitable for use in the biosensors of the present subject matter. The preferred biosensors can utilize one or more of these enzyme(s) instead of, or in addition to, AchE. It is also contemplated that other enzyme(s) could potentially be used in the biosensors of the present subject matter.

Molecule: sodium arsenite [As(III)]
- estimated inhibition (from linear regression) [1]: 50.7±5.7%
- inhibition [1]: about 55%
- maximum inhibition [1]: 69.3% and 65.7%
- IMax ([1]; pH 8): 70-75%
- Ki ([1]; pH 8): 61.6 µM
- k1 (reversible pseudo-first order model) ([1]; pH 8): 47.3 M⁻¹ s⁻¹
- second (dissociation) rate constant of the reversible pseudo-first order model, symbol not given ([1]; pH 8): 0.175 M⁻¹

Molecule: O.O.O.O.O.O.O.O=[As]([O-])([O-])O.[Na+].[Na+] [As(V), Na2HAsO4.7H2O]
- sensitivity of the AchE sensor to the species [2]: not sensitive

Molecule: CC(=O)Oc1ccc(O)cc1 [4-acetoxyphenol]
- Vmax (Michaelis-Menten fit of steady state current) [3]: 24.2±1.1 μA
- current density corresponding to Vmax [3]: 121+5.25 μA cm^−2

B1: Lipolase 100 L: Lipase, Novozyme, Thermomyces lanuginosus (protein, UniProt O59952 23-291, looked up)
Lipase: EVSQDLFNQFNLFAQYSAAAYCGKNNDAPAGTNITCTGNACPEVEKADATFLYSFEDSGVGDVTGFLALDNTNKLIVLSFRGSRSIENWIGNLNFDLKEINDICSGCRGHDGFTSSWRSVADTLRQKVEDAVREHPDYRVVFTGHSLGGALATVAGADLRGNGYDIDVFSYGAPRVGNRAFAEFLTVQTGGTLYRITHTNDIVPRLPPREFGYSHSSPEYWIKSGTLVPVTRNDIVKIEGIDATGGNNQPNIPDIPAHLWYFGLIGTCL
modifications: commercial Novozymes enzyme preparation
notes: Lipase, Novozyme, Thermomyces lanuginosus
- Activity with 4-Acetoxyphenol [4]: 1.59 µmol/mg/min

B2: Palatase 20000 L: Lipase, Novozyme, Rhizomucor miehei (protein, UniProt P19515 95-363, looked up)
Lipase: SIDGGIRAATSQEINELTYYTTLSANSYCRTVIPGATWDCIHCDATEDLKIIKTWSTLIYDTNAMVARGDSEKTIYIVFRGSSSIRNWIADLTFVPVSYPPVSGTKVHKGFLDSYGEVQNELVATVLDQFKQYPSYKVAVTGHSLGGATALLCALDLYQREEGLSSSNLFLYTQGQPRVGDPAFANYVVSTGIPYRRTVNERDIVPHLPPAAFGFLHAGEEYWITDNSPETVQVCTSDLETSDCSNSIVPFTSVLDHLSYFGINTGLCT
- Activity with 4-Acetoxyphenol [4]: 3.43 µmol/mg/min

B3: Alcalase 2.5 Type DX: Subtilisin, Novozyme, Bacillus licheniformis (protein, UniProt P00780 106-379, looked up)
Subtilisin Carlsberg: AQTVPYGIPLIKADKVQAQGFKGANVKVAVLDTGIQASHPDLNVVGGASFVAGEAYNTDGNGHGTHVAGTVAALDNTTGVLGVAPSVSLYAVKVLNSSGSGSYSGIVSGIEWATTNGMDVINMSLGGASGSTAMKQAVDNAYAKGVVVVAAAGNSGSSGNTNTIGYPAKYDSVIAVGAVDSNSNRASFSSVGAELEVMAPGAGVYSTYPTNTYATLNGTSMASPHVAGAAALILSKHPNLSASQVRNRLSSTATYLGSSFYYGKGLINVEAAAQ
modifications: commercial Novozymes enzyme preparation
notes: Subtilisin, Novozyme, Bacillus licheniformis
- Activity with 4-Acetoxyphenol [4]: 1.93 µmol/mg/min
